# Measured values: patent US7282522B2, “Hydroxamic acid derivatives and the method for preparing thereof” (Amorepacific Corporation, priority 2003, dated 2007)
# Where two headings read alike, the source gives them in different places.
# Assays:
# procollagen type I = assay: Effect on collagen biosynthesis (procollagen type I ELISA) in human fibroblasts; format: cell-based; settings: 10^−4M, 24 hours, serum-free medium, relative to control group = 100
# Procedure: Human fibroblasts were seeded into 24-well plate at 1×10^5 cells per well and then cultured to 90% of growth.
# For each supernatant, procollagen production was measured with procollagen type I ELISA kit.
# rabbits [1] = settings: rabbit, in vivo
# collagenase = assay: Inhibition of collagenase expression in human fibroblasts (ELISA kit); format: cell-based; settings: 10^−4M, 24 hours, serum-free medium, relative to control group = 100
# Summary of the method: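 Serum-starved human fibroblasts were treated for 24 h with 10^−4M test material in serum-free DMEM. Collagenase in the culture fluid was measured by sandwich ELISA read at 405 nm. Values are expressed as % of the untreated control (=100).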
# RARα = molecular target: T1, RARα (Homo sapiens, UniProt P10276); assay: RARE-luciferase reporter assay in transfected CV-1 cells (affinity to retinoic acid receptor), RARα; format: cell-based; settings: treated 24 hours at final concentration 10^−4M, control group 1000
# T1 construct: expressed in transfected cells; host or cells: CV-1 cells (ATCC)
# T1 sequence (P10276 1-462): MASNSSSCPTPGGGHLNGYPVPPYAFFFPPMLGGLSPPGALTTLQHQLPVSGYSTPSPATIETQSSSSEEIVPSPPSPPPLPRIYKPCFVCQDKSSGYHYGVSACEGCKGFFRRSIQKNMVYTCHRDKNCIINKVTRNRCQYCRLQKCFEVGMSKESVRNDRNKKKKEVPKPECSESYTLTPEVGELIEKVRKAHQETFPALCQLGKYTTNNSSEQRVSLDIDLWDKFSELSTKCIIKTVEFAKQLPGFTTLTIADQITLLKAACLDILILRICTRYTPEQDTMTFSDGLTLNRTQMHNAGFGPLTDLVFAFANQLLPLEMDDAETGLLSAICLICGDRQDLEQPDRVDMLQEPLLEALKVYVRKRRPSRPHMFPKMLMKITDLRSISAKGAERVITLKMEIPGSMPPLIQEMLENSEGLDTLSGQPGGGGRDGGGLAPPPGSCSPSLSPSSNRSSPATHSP
# Summary of the method: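 CV-1 cells co-transfected with pECE-RARα or pECE-RARγ, RARE-tk-Luc reporter and β-galactosidase vector. Starting 24 h post-transfection, cells were treated for 24 h with compounds at a final 10^−4M; luciferase reporter read-out.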
# RARγ = molecular target: T2, RARγ (Homo sapiens, UniProt P13631); assay: RARE-luciferase reporter assay in transfected CV-1 cells (affinity to retinoic acid receptor), RARγ; format: cell-based; settings: treated 24 hours at final concentration 10^−4M, control group 5000
# T2 construct: expressed in transfected cells; host or cells: CV-1 cells (ATCC)
# T2 sequence (P13631 1-454): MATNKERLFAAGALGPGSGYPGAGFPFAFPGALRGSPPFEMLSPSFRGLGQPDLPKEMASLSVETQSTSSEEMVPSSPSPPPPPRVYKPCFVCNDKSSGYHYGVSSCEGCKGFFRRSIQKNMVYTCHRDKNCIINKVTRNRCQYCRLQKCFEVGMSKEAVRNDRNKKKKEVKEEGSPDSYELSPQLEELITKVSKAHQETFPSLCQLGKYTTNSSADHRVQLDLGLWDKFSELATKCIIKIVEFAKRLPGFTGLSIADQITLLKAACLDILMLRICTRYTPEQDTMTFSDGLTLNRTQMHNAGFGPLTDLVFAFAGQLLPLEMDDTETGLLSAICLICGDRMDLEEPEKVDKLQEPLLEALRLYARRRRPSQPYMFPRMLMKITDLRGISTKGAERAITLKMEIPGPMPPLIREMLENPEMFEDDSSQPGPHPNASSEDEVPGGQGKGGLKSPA
# Summary of the method: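 CV-1 cells in DMEM with 2.5% FBS, 5,000 per well, transfected 24 h after seeding with 10 ng pECE-RARα, pECE-RARγ, 100 ng RARE-tk-Luc reporter and 100 ng β-galactosidase vector. Read-out is RARE-driven luciferase.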
# elastase = assay: Inhibition of elastase expression in human fibroblasts (ELISA kit); format: cell-based; settings: 10^−4M, 24 hours, serum-free medium, relative to control group = 100
# Summary of the method: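 Elastase in fibroblast culture fluid quantified by sandwich ELISA: 3 h capture, then chromophore-conjugated secondary antibody, then colour development, stopped with 1M sulfuric acid. Absorbance read at 405 nm. Expression given as % of the untreated control absorbance, with control set to 100.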
# white guinea pigs = assay: Phototoxicity test (UVA irradiation); settings: for Evaluation (phototoxicity): 1%(w/v) solution, UVA 15 J/cm^2; for Phototoxic index: 50 μl of 1%(w/v) solution, UVA 320~380 nm 15 J/cm^2, observed 24, 48 and 72 hours
# rabbits [2] = assay: Primary skin irritation test on animals (Draize P.I.I.); settings: depilated back; for P.I.I. (Primary Irritation Index): 0.5 ml of 1% solution in 1,3-butylene glycol:ethanol 7:3, observed 24 or 72 hours later; for Evaluation (skin irritation): 1% solution, according to Draize's P.I.I.
SMILES,Collagen biosynthesis (%) (procollagen type I),Evaluation (skin irritation) (rabbits [1]),P.I.I. (Primary Irritation Index) (rabbits [1]),Collagenase expression (%) (collagenase),Luciferase activity RARα (RARα),Luciferase activity RARγ (RARγ),Elastase expression (%) (elastase),Evaluation (phototoxicity) (white guinea pigs),Phototoxic index (white guinea pigs),P.I.I. (Primary Irritation Index) (rabbits [2]),Evaluation (skin irritation) (rabbits [2])
"CN(C(=O)c1ccc(C(C)(C)C)cc1)c1ccc(C(=O)NO)cc1 [Example 19, N-[4-(N-hydroxycarbamoyl)phenyl]-N-methyl-[4-tert-butylphenyl]carboxyamide]",120,No irritation,0.223,70,10020,11200,80,"No phototoxicity (lower value than 0.5, criterion value to be estimated as no phototoxicity)",0,–,–
"CCCc1ccc(C(=O)Nc2ccc(C(=O)NO)cc2)cc1 [Example 5, N-[4-(N-hydroxycarbamoyl)phenyl][4-propylphenyl]carboxyamide]",125,–,–,79,18000,11000,78,"No phototoxicity (lower value than 0.5, criterion value to be estimated as no phototoxicity)",0,0.375,No irritation
"CN(O)C(=O)c1ccc(N(C)C(=O)C23CC4CC(CC(C4)C2)C3)cc1 [Example 22, adamantyl-N-[4-(N-hydroxy-N-methylcarbamoyl)phenyl]-N-methylcarboxyamide]",120,–,–,77,12100,12400,70,"No phototoxicity (lower value than 0.5, criterion value to be estimated as no phototoxicity)",0,0.350,No irritation
"Cc1ccc(C(=O)N(C)c2ccc(C(=O)NO)cc2)cc1 [Example 13, N-[4-(N-hydroxycarbamoyl)phenyl]-N-methyl-[4-methylphenyl]carboxyamide]",117,–,–,70,12000,11200,84,"No phototoxicity (lower value than 0.5, criterion value to be estimated as no phototoxicity)",0,0.500,No irritation
"Cc1cccc(NC(=O)c2ccc(C(=O)NO)cc2)c1 [Example 36, [4-(N-hydroxycarbamoyl)phenyl]-N-[3-methylphenyl]carboxyamide]",121,–,–,68,16700,11200,79,"No phototoxicity (lower value than 0.5, criterion value to be estimated as no phototoxicity)",0,0.456,No irritation
"Cc1ccc(N(C)C(=O)c2ccc(C(=O)NO)cc2)cc1 [Example 46, [4-(N-hydroxycarbamoyl)phenyl]-N-methyl-N-[4-methylphenyl]carboxyamide]",121,–,–,83,13200,11123,80,"No phototoxicity (lower value than 0.5, criterion value to be estimated as no phototoxicity)",0,0.345,No irritation
"CCc1ccc(C(=O)N(C)c2ccc(C(=O)NO)cc2)cc1 [Example 15, N-[4-(N-hydroxycarbamoyl)phenyl]-N-methyl-[4-ethylphenyl]carboxyamide]",112,–,–,79,14500,10400,76,"No phototoxicity (lower value than 0.5, criterion value to be estimated as no phototoxicity)",0,0.789,No irritation
"Cc1cccc(C(=O)Nc2ccc(CC(=O)NO)cc2)c1 [Example 25, N-[4-(N-hydroxycarbamoylmethyl)phenyl][3-methylphenyl]carboxyamide]",120,–,–,70,13200,12100,80,"No phototoxicity (lower value than 0.5, criterion value to be estimated as no phototoxicity)",0,0.423,No irritation
"CN(C(=O)C12CC3CC(CC(C3)C1)C2)c1ccc(C(=O)NO)cc1 [Example 21, N-[4-(N-hydroxycarbamoyl)phenyl]adamantyl-N-methylcarboxyamide]",118,–,–,69,12500,11200,78,"No phototoxicity (lower value than 0.5, criterion value to be estimated as no phototoxicity)",0,0.345,No irritation
"CN(O)C(=O)c1ccc(C(=O)N(C)C23CC4CC(CC(C4)C2)C3)cc1 [Example 55, N-adamantyl [4-(N-hydroxy-N-methylcarbamoyl)phenyl]-N-methyl carboxyamide]",108,–,–,85,13400,11000,70,"No phototoxicity (lower value than 0.5, criterion value to be estimated as no phototoxicity)",0,0.245,No irritation
